Tested on: Anopheles mosquitoe species
Experiment: Lethality of drug to Anopheles mosquitoes
Conditions: 7 μg/ml (estimated ED 50 of Pyremethamine)

CCc1nc(N)nc(N)c1-c1ccc(Cl)cc1 [Pyremethamine]
lethality to mosquitoes at the estimated ED50: not lethal

Source: patent US20100247485A1, “FORMULATIONS AND DEVICES FOR […] TO […] MICR[…] ARTHOPODS” (MEVLABS, INC., priority 2007, published 2010)
